# Measured values reported in patent US20110257146A1, “Method of Treating Kcnq Related Disorders Using Organozinc Compounds” (The johns Hopkins University, priority 2006, published 2011).
# “Also recorded” adds a separate entry of the source.
# How the values were obtained:
# KCNQ5 = molecular target: T1, KCNQ5 (Homo sapiens, UniProt Q9NR82); experiment: Whole-cell voltage clamp of CHO cells expressing KCNQ5; assay type: cell-based; conditions: 10 μM ZnPy, extracellular
# T1 construct: expressed in transfected cells; host or cells: CHO cells
# Description: (§1) Cell culture and transient transfection—Chinese Hamster Ovary (CHO) cells were grown in 50/50 DMEM/F12 (Cellgro) with 10% FBS (Gibco), 100 U/ml penicillin (Cellgro), 100 μg/ml streptomycin (Cellgro) and 2 mM L-glutamine (Gibco). At 24 hours before transfection, cells were split and plated in 60 mm dishes and were transfected with Lipofectamine2000™ reagent (Invitrogen) according to the manufacturer's instruction. At 24 hours after transfection, cells were split and re-plated onto coverslips coated with poly-L-lysine (Sigma). Plasmid expressing CD4 cDNA as a marker was cotransfected with the channel cDNAs of hKCNQ1 (from Dr. Michael Sanguinetti), hKCNQ4 (from Dr. Vitya Vardanyan), rKCNQ2, rKCNQ3, and hKCNQ5 (from Drs. David McKinnon, Mark Shapiro, and Thomas Jentsch). Prior to recording, anti-CD4 Dynabeads (Dynal. Biotech. Inc.) were added into the medium to allow for identification of the transfected cells. Stable lines expressing Kv2.1, hERG, and Kv4.2 were generated by standard protocols using pcDNA3.1 and maintained at complete medium supplemented with 500 μg/ml G418. […]
# (§2) Electrophysiological Recording—Standard whole-cell recording was used. […] Current and voltage were recorded using an Axopatch-200A amplifier, filtered at 1 kHz and digitized using a DigiData 1322A with pClamp 9.2 software (Axon Instruments, Foster City, Calif.). […]
# KCNQ3 = molecular target: T2, KCNQ3 (Rattus norvegicus, UniProt O88944); experiment: Whole-cell voltage clamp of CHO cells expressing KCNQ3; assay type: cell-based; conditions: 10 μM ZnPy
# T2 construct: expressed in transfected cells; host or cells: CHO cells
# Description: as §1, with “cells.” for “cells. Stable lines expressing Kv2.1, hERG, and Kv4.2 were generated by standard protocols using pcDNA3.1 and maintained at complete medium supplemented with 500 μg/ml G418.”
# as §2
# Data and Statistical Analysis—Patch-clamp data were preprocessed using Clampfit 9.2 (Axon Instruments, Foster City, Calif.) and then analyzed in Origin 7 (OriginLab, Northampton, Mass.). […]
# KCNQ2(A306T) = molecular target: T3, KCNQ2(A306T) (Rattus norvegicus, UniProt O88943, A306T); experiment: Whole-cell recording of KCNQ2(A306T) mutant in CHO cells; assay type: cell-based
# T3 construct: expressed in transfected cells; host or cells: CHO cells
# Description: (§3) FIG. 9. KCNQ2 point mutants selectively lose ZnPy sensitivity. […] Each mutation site was indicated based on the predicted transmembrane regions. Dashed line indicates the potentiation level of wt KCNQ2 channel in the absence of ZnPy. […] C. Modeling of the S5-pore-S6 region of KCNQ2.
# FIG. 11. ZnPy effects on BFNC mutant channels expressed in CHO cells. A. whole-cell currents of KCNQ2(R207W), KCNQ2(Y284C), and KCNQ2(A306T) were recorded in the absence (left) and presence (right) of 10 μM ZnPy, Vh was −80 mV, in 10 mV voltage steps from −70 mV to +50 mV. B. a histogram plotting potentiation effects on KCNQ2 wild type (wt) and BFNC mutants (R207W, Y284C and […]) by ZnPy (filled box) and retigabine (open box) (n≧4, * p<0.001, ** p<0.05).
# (§4) Mutagenesis—Starting from KCNQ cDNAs, the KCNQ2 point mutants were constructed by recombinant PCR and verified by sequencing.
# (§5) Electrophysiological Recording—Standard whole-cell recording was used. Pipettes were pulled from borosilicate glass capillaries (TW150-4, World Precision Instruments, Sarasota, Fla.). When filled with the intracellular solution, the pipettes have resistances of […]. During the recording, constant perfusion of extracellular solution was maintained using a BPS perfusion system (ALA, Westbury, N.Y.). Pipette solution contained (mM): KCl 145, MgCl2 1, EGTA 5, HEPES 10, MgATP 5 (pH 7.3); extracellular solution contained (mM): NaCl 140, KCl 3, CaCl2 2, MgCl2 1.5, HEPES 10, glucose 10 (pH 7.4). Current and voltage were recorded using an Axopatch-200A amplifier, filtered at 1 kHz and digitized using a DigiData 1322A with pClamp 9.2 software (Axon Instruments, Foster City, Calif.). Series resistance compensation was also used and set to 60-80%.
# KCNQ2(L249A/L275A) = molecular target: T4, KCNQ2(L249A/L275A) (Rattus norvegicus, UniProt O88943, L249A/L275A); experiment: Whole-cell recording of KCNQ2(L249A/L275A) mutant; assay type: cell-based
# T4 construct: expressed in transfected cells
# Excerpt: as §3, §4, §5
# M-current = experiment: Native M-current in isolated dorsal root ganglion neurons; assay type: cell-based, rat; conditions: 10 μM ZnPy
# Description: FIG. 10. ZnPy potentiation of native M-current. A. M current recorded from an isolated rat dorsal root ganglion neuron, Vh was −60 mV, stepped to −20 mV, followed by a step to −50 mV, and stepped back to −20 mV. B. Histograms show M-current amplitudes in the presence and absence of 10 μM ZnPy (n=10, * p<0.001). M-current amplitudes were measured by fitting the IM relaxation with an exponential equation. The recording bath solution includes 1 μM TTX, 0.2 mM TEA, 1 mM 4-AP, 50 μM CNQX, and 10 μM bicuculline. C. Membrane potential of an isolated hippocampal neuron was monitored when 10 μM ZnPy was applied in bath solution followed by the addition of 15 μM linopirdine. D. Action potentials elicited by 200 pA current injection to a patched hippocampal neuron. The ZnPy treatments are as indicated.
# Neuron Culture—Dorsal root ganglia (DRG) was collected from fourteen-day-old CD rat and incubated in collagenase (sigma, 500 U/ml, 15 min) and then trypsin (Sigma, 1 mg/ml, 30 min) at 37° C. Single DRG neurons were isolated by mechanical trituration with a fire-polished glass Pasteur pipette. […]
# as §2
# [1] = Rat model of severe global ischemia; conditions: in vivo
smiles,measurement,setting,value
"S=c1ccccn1[O][Zn][O]n1ccccc1=S [ZnPy, Zinc Pyrithione]",effect on channel activity,KCNQ5,became conductive upon ZnPy treatment
same,change of V1/2,KCNQ3,no change on V1/2
same,current potentiation,KCNQ3; extracellular,did not show any current potentiation; also recorded: has no effect on KCNQ3
same,effectiveness of current increase,KCNQ2(A306T); 10 μM ZnPy,less effective
same,hyperpolarizing shift of V1/2,KCNQ2(A306T); ZnPy,24.1±3.1 mV
same,potentiation in Gmax,KCNQ2(A306T); ZnPy,little potentiation in Gmax
same,V1/2 shift caused by ZnPy,KCNQ2(L249A/L275A),completely abolished the V1/2 shift
same,folds of current increase,"KCNQ2(L249A/L275A); +50 mV, ZnPy",8.6±2.2 folds
same,potentiation of M-current amplitude,M-current,1.9 fold
same,neuroprotection,[1],protection against cell loss in the selectively vulnerable zone of the CA1 region of the hippocampus
